Measurements: patent publication US12668568B2, “Adamantanyl-substituted benzamide compounds and their use as P2X7 receptor antagonists” (The University of Sydney, priority 2018, dated 2026)
Like-named read-outs stand apart in the source and are kept apart here.

Legend:
[1] = Brain tissue binding, rapid equilibrium dialysis; format: in vitro ADME; conditions: rat brain tissue, 4 hours 37° C., read-out: pb (% bound) Brain (converted)
Procedure: (§1) Determining the extent to which a molecule binds to factors present within plasma and brain is a critical phase of drug development as this determines not only the free unbound fraction available to exert the desired pharmacological actions but also influences dosing, clearance rate and the potential for drug-drug interactions. Binding is measured with the rapid equilibrium dialysis technique using cartridges consisting of two compartments (sample and buffer chamber) separated by a dialysis membrane.
(§2) All compounds are prepared in 100% DMSO to provide 10 mM stock solutions. Sample material is prepared by spiking a known volume of plasma or brain with the stock solution such that the final concentration of compound is 1 μM. This is placed in the sample chamber of the dialysis cartridge. Dialysis buffer is then added to the buffer chamber and the cartridge incubated at 37° C. for 4 hours. Following the incubation the test compound concentrations are determined in the two chambers and the % free or bound component calculated using the equation below:
(§3) [formula] [formula] In Vivo Pharmacokinetic Studies

[2] = target: T1, mP2X7R (Mus musculus, UniProt Q9Z1M0); test: Calcium influx assay in HEK-mP2X7 cells; format: cell-based; conditions: HEK cells expressing mP2X7R, BzATP 100 μM; mean ± standard deviation, n >3
T1 construct: expressed in transfected cells; host or cells: HEK293T, G418-selected; gift from Dr Leanne Stokes and Prof; Jim Wiley
T1 sequence (Q9Z1M0 1-595): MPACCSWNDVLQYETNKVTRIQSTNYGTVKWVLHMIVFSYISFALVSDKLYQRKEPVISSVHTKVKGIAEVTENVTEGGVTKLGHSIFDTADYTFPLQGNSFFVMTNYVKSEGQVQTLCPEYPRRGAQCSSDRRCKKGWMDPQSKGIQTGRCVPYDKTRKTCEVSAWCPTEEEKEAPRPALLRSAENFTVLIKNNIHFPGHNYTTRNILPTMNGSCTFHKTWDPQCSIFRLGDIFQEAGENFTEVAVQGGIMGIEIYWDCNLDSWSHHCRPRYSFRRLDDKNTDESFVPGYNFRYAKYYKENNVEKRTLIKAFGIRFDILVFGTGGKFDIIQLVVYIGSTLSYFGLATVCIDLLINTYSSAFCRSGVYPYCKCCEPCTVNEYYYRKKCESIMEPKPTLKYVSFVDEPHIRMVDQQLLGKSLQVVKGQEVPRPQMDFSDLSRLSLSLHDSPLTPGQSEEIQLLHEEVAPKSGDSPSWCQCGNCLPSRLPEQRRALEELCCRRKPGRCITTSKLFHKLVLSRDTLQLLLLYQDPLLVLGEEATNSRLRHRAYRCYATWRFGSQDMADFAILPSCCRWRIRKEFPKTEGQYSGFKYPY
Procedure: HEK293T cells transfected with cDNA for the human (HEK-hP2X7) or mouse P2X7 (HEK-mP2X7) receptor (a kind gift from Dr […] Stokes and Prof. Jim Wiley) were cultured in DMEM/F12 with 10% FBS and 500 μg/mL G418 (all from Invitrogen). […] HEK-hP2X7 or HEK-mP2X7 cells were harvested using trypsin (0.05%) with EDTA (0.03%). Cells were loaded with Fluo-4 AM (1 μM) in HBSS buffer at 37° C. for 30 min, inverting every 5 mins. […] Cells were resuspended a final time in assay buffer and seeded into black-walled 96 well clear-bottom plates at a density of 5×10^4 cells/well. […] Fluorescence was then monitored every 5 s for 5 min total monitoring. […] Data were normalized to the peak response seen with BzATP alone and the basal response seen due to injection of vehicle (see FIG. 3).

[3] = Plasma protein binding, rapid equilibrium dialysis; format: in vitro ADME; conditions: rat plasma, 4 hours 37° C., read-out: pb (% bound) Plasma (converted)
Procedure: as §1, §2, §3

[4] = target: T2, CYP2C19 (Homo sapiens, UniProt P33261); test: Cytochrome profiling CYP2C19 (baculosomes); format: in vitro ADME; conditions: probe fluorogenic probe substrate (not named), 10 μM substrate
T2 construct: host or cells: insect cells infected with recombinant baculovirus (microsomes)
T2 sequence (P33261 whole entry): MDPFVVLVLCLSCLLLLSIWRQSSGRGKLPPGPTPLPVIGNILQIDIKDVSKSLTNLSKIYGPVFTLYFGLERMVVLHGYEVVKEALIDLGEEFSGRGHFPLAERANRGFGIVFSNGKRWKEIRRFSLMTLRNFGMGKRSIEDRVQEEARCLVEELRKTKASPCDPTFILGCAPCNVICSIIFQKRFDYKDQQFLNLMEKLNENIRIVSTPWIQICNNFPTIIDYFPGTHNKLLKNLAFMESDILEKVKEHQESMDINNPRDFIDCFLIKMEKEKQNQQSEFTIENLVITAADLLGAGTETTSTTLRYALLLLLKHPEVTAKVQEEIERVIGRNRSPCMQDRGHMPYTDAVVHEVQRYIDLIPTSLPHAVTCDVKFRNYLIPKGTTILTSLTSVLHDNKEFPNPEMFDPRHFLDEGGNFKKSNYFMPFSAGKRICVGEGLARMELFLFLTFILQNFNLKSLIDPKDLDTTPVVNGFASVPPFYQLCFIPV
From the text: Cytochrome P450 (abbreviated CYP, P450 or CYP450) belong to very large and diverse superfamily of haemoproteins which accept both exogenous and endogenous compounds as substrates in enzymatic reactions and play a major role in drug metabolism. Although this class has more than 50 enzymes just 5 of them (CYP1A2, CYP2C9, CYP2C19, CYP2D6 and CYP3A4) are able to metabolise almost 90% of all drugs. Inhibition of these enzymes is one of the major reasons for drug-drug interactions. Consequently, detailed CYP inhibition profiles are a regulatory requirement for all new drugs. Inhibition potencies against the five most relevant CYP isoforms is performed using baculosomes; microsomes prepared from insect cells infected with recombinant baculovirus containing cDNA for a specific human P450 isozyme. The baculosomes are incubated with drug at a concentration of 1 μM in the presence of a probe substrate for 60 minutes at 37° C. The probe is normally metabolised by the baculosomes to produce a fluorescent metabolite. A substrate drug will compete for the isozyme and reduce the metabolism of the probe resulting in a decrease in the fluorescent signal. The percent inhibition due to the presence of the test compound is calculated using the following equation: [formula] • X=fluorescent intensity observed in the presence of test compound • A=fluorescent intensity observed in control • B=fluorescent intensity observed in the presence of the probe control

[5] = In vivo pharmacokinetic study, intravenous bolus; conditions: rat, 1 mg/kg intravenous bolus; for AUC / AUC(0-inf) / clearance / Tmax / Vd / Cmax / half-life: male, Hans Wistar
Procedure: Male Hans Wistar rats were purchased from Charles River Laboratories UK. During the acclimatisation period the rats were group housed in cages of three and maintained under a 12 hour light/dark cycle with free access to food and water. Temperature and humidity were controlled according to UK Home Office regulations.
All compounds were formulated immediately prior to dosing in 10% DMSO, 20% Cremophor EL, 70% saline to provide 1 mg/ml solutions. Each rat received a weight corrected dose of formulated drug at 1 mg/kg administered by intravenous bolus injection via a lateral tail vein.
Terminal plasma and brain samples were collected from n=3 animals at specified time points (0.017, 0.083, 0.25, 0.5, 1, 2, 4 and 6 hours following dose administration).
Drug quantification was performed using liquid chromatography-tandem mass spectrometry using electrospray ionisation. Pharmacokinetic parameters were calculated using Phoenix WinNonlin software.

[6] = brain, read-out: T1/2 Brain (converted)
[7] = plasma, read-out: T1/2 Plasma (converted)

Compound | fraction unbound at 4 h, 1 μM [1] | IC50 [2] [nM] | fraction unbound at 4 h, 1 μM [3] | inhibition at 60 min, 1 μM [4] [%] | AUC ([5]; brain, read-out: AUC6 Brain) [ng·h/mL] | AUC(0-inf) ([5]; brain, read-out: AUC∞ Brain) [ng·h/mL] | clearance ([5]; brain, read-out: Cl Brain) [mL/min/kg] | Tmax ([5]; brain, read-out: Tmax Brain) [min] | Vd ([5]; brain, read-out: Vd Brain) [L/kg] | Cmax ([5]; plasma) [ng/mL] | AUC ([5]; plasma, read-out: AUC6 Plasma) [ng·h/mL] | AUC(0-inf) ([5]; plasma, read-out: AUC∞ Plasma) [ng·h/mL] | clearance ([5]; plasma, read-out: Cl Plasma) [mL/min/kg] | Tmax ([5]; plasma, read-out: Tmax Plasma) [min] | Vd ([5]; plasma, read-out: Vd Plasma) [L/kg] | Cmax Brain ([5]; brain) [ng/mL] | T1/2 Brain ([5]; brain) [min] | T1/2 Plasma ([5]; plasma) [min] | half-life [5, 6] [min] | half-life [5, 7] [min]
COc1ccc(Cl)c(C(=O)NCC23CC4CC(CC(C4)C2)C3)c1 [Compound 31, reference compound] | 0.0027 | 1900 ± 905 | 0.0079 | 84.4 | 221 | 246 | 67.8 | 1.2 | 0.77 | 1190 | 186 | 192 | 86.9 | 1.2 | 2.09 | 1696 | 9.6 | 28.2 |  | 
COc1ccc(Cl)c(C(=O)NCC23CC4CC(F)(CC(F)(C4)C2)C3)c1 [Compound 2, 2-Chloro-N-((3,5-difluoroadamantan-1-yl)methyl)-5-methoxybenzamide] | 0.085 | 575 ± 108 | 0.115 | 1.5 | 209 | 217 | 76.9 | 1.2 | 1.54 | 1720 | 196 | 199 | 83.5 | 1.2 | 1.41 | 1838 |  |  | 35.4 | 28.2
COc1ccc(Cl)c(C(=O)NCC23CC4CC(CC(F)(C4)C2)C3)c1 [Compound 3, 2-Chloro-N-((3-fluoroadamantan-1-yl)methyl)-5-methoxybenzamide] | 0.0309 | 1510 ± 339 | 0.0597 | 46.9 | 286 | 291 | 57.3 | 1.2 | 0.92 | 1260 | 175 | 178 | 93.4 | 1.2 | 1.8 | 2422 |  |  | 25.8 | 25.8
COc1ccc(Cl)c(C(=O)NCC23CC4(F)CC(F)(CC(F)(C4)C2)C3)c1 [Compound 1, 2-Chloro-N-((3,5,7-trifluoroadamantan-1-yl)methyl)-5-methoxybenzamide] | 0.0549 | 158 ± 44 | 0.105 | 12.9 | 380 | 386 | 43.2 | 1.2 | 2.1 | 1290 | 385 | 399 | 41.8 | 1.2 | 2.75 | 1464 | 75.6 | 103 |  | 
